# Data taken from PMC6748665 (Journal of Medicinal Chemistry, 2019).
# Molecular target: T1, MtbTrmD (Mycobacterium tuberculosis, UniProt P9WFY7)
# T1 sequence (P9WFY7 1-230): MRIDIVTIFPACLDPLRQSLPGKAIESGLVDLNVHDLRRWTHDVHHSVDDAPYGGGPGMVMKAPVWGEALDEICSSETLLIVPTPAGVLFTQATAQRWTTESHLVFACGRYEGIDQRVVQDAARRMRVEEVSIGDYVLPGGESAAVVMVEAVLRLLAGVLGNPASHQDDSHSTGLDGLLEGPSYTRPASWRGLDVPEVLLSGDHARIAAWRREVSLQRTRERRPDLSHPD
# Assay: Surface plasmon resonance
# Assay type: binding
# Settings: SPR
smiles,measurement,value
"CCCCCCCCNCc1ccc(CNC(=O)c2csc3nc[nH]c(=O)c23)cc1 [Compound 15, N-(4-((Octylamino)methyl)benzyl)-4-oxo-3,4-dihydrothieno[2,3-d]pyrimidine-5-carboxamide]",lower affinity for MtbTrmD compared to the PaTrmD binding affinity,over 100 fold
